Experimental data as given in patent US9082985B2, “Arylsulfonic acid compound and use thereof as electron-acceptor material” (NISSAN CHEMICAL INDUSTRIES, LTD., priority 2008, dated 2015).

Assay: Solubility test: amount of cyclohexanol (CHA) added until the varnish became clouded
Assay type: physicochemical
Details: varnish of arylsulfonic acid compound with PTA (0.5 molar equivalents; 1.0 for NSO-2) in 1 g DMI, solid content 7.0 wt %; amount of CHA when the varnish became clouded
Description: The arylsulfonic acid compounds obtained in the above Examples 1 to 4 and Comparative Example 1 were subjected to a solubility test in solvent according to the following procedure.
The respective arylsulfonic acid compounds obtained in Examples 1 to 4 and 0.5 molar equivalents of PTA, relative to the compound, were dissolved in 1 g of 1,3-dimethyl-2-imidazolidinone (hereinafter abbreviated as DMI) so that the solid content was set at 7.0 wt %, thereby preparing varnishes.
Cyclohexanol (hereinafter abbreviated as CHA) was added to the resulting varnish to determine, as an index for solubility, an amount of CHA at the time when the varnish became clouded.
NSO-2 obtained in Comparative Example 1 and 1.0 molar equivalent of PTA, relative to NSO-2, were dissolved in 1 g of DMI so that the solid content was set at 7.0 wt %, thereby preparing a varnish.
CHA was added to the resulting varnish to determine, as an index for solubility, an amount of CHA at the time when the varnish became clouded.

Amount of dissolution in CHA [g]	Structure (SMILES)
8.0	N#Cc1c(F)c(F)c(Oc2cc(S(=O)(=O)O)cc3cc(S(=O)(=O)O)ccc23)c(F)c1C#N [Example 3FNS-1, Dicyanoperfluorotoluenesulfonic acid compound]
>10	N#Cc1c(F)c(F)c(Oc2cc(S(=O)(=O)O)cc3cc(S(=O)(=O)O)ccc23)c(F)c1F [Example 4FNS-2, Cyanoperfluorotoluenesulfonic acid compound]
>10	O=S(=O)(O)c1ccc2c(Oc3c(F)c(F)c(C(F)(F)C(F)=C(F)F)c(F)c3F)cc(S(=O)(=O)O)cc2c1 [Example 9FNS-1, Perfluoroallylbenzene naphthalenesulfonic acid compound]

Structure (SMILES)	Amount of dissolution in CHA [g]
O=S(=O)(O)c1ccc2c(Oc3c(F)c(F)c(C(F)(F)F)c(F)c3F)cc(S(=O)(=O)O)cc2c1 [Example 7FNS-1, Perfluorotoluene naphthalenesulfonic acid compound]	>10
O=S(=O)(O)c1ccc2c(Oc3c(F)c(F)c(-c4c(F)c(F)c(Oc5cc(S(=O)(=O)O)cc6cc(S(=O)(=O)O)ccc56)c(F)c4F)c(F)c3F)cc(S(=O)(=O)O)cc2c1 [NSO-2, Naphthalenedisulfonic acid compound, reference compound]	3.3
